Results reported in US9522928B2, “Mannosylated compounds useful for the prevention and the treatment of infectious diseases” (UNIVERSITE DE STRASBOURG, priority 2011, dated 2016).

Experiment: Hydrodynamic diameter of micelles (Zetasizer Nano ZS)
Assay type: physicochemical
Settings: in water at 0.5 mg/ml
Protocol: DiManinsatC24 was prepared according a procedure similar to that used for the preparation of TriDiManC24 except that: • pentacosanoic acid was replaced by 10,12-pentacosadiynoic acid, and • before the coupling with 10,12-pentacosadiynoic acid, the benzyl groups of compound 33 were replaced by acetyl group so as to provide compound 108 (as illustrated in FIG. 3E). ^1H NMR δ(ppm) (MeOD, 400 MHz) 4.87 (s, 3H), 4.73 (s, 3H), 3.64-3.50 (m, 14H), 3.46-3.20 (m, 76H), 2.97-2.93 (m, 6H), 2.33 (t, 6H, J=6.8 Hz), 2.09-1.96 (m, 6H), 1.08-1.05 (m, 32H), 0.66 (t, 3H, J=6.8 Hz). ^13C NMR δ (ppm) (MeOD, 100 MHz) 173.7, 168.8, 104.2, 101.2, 80.6, 80.4, 75.1, 74.7, 72.5, 72.2, 72.1, 71.9, 71.8, 71.7, 71.6, 71.4, 69.4, 69.1, 68.9, 68.7, 68.6, 68.0, 63.2, 63.1, 42.2, 37.0, 34.8, 33.7, 33.1, 30.8, 30.7, 30.6, 30.5, 30.4, 30.2, 29.5, 28.1, 27.0, 26.0, 23.7, 19.7, 14.4. IR (neat film, cm^−1): 3353, 2924, 1716, 1636, 1350, 1182, 1095, 1035, 1009, 837, 669. • Determination of critical micelle concentrations (CMCs) and size of particles. The hydrodynamic diameters of micelles of glycolipids were measured in water using a Zetasizer Nano ZS system (Malvern Instruments). The CMCs were measured using pyrene as an extrinsic fluorescent probe and were carried out as described (Perino et al., 2011). Briefly, a range of glycolipid samples were dissolved in water (1 ml), with concentrations ranging from 1.0 to 0.001 mg/ml. A stock solution of pyrene (1 mM) was prepared in dimethyl sulfoxyde and was added to each sample. Fluorescent emission of pyrene was measured at 25° C. using a Fluorolog spectrofluorometer (Jobin Yvon, Horiba). The intensities of fluorescence emission were determined at 374 nm (I374) and at 383 nm (I383), with an excitation at a 339 nm wavelength. The ratios I374/I383 were calculated and plotted against the glycolipid concentration. The CMC value was determined at the intersection of the two straight lines.

Question: Which “hydrodynamic diameter of micelles” value does the source give for `CCCCCCCCCCCCCCCCCCCCCCCCC(=O)NC(COCCC(=O)NCCOCCOCCOCCOC1OC(CO)C(O)C(O)C1O)(COCCC(=O)NCCOCCOCCOCCOC1OC(CO)C(O)C(O)C1O)COCCC(=O)NCCOCCOCCOCCOC1OC(CO)C(O)C(O)C1O` (stereo not shown) [TriManC24] here?
Answer: The value was 39 nm.
